Source: US20070071782A1, “2-Cyanobenzenesulfonamides for combating animal pests” (priority 2003, published 2007)

Experiments:
Format in all cases: in vivo
[1] = system: Argentine ants, Linepithema humile; assay: whole plant or invertebrate; settings: for mortality at 1 % strength: Linepithema humile, 144 h, read-out: Mean cumulative % mortality 6 days after treatment
Experimental: • a) The tests were conducted in petri dishes. Ants were given a water source and then were starved of a food source for 24 hours. Baits were prepared with 20% honey/water solution. A solution of the active ingredient in acetone was added to reach a concentration of the active ingredient of 1% by weight (w/w). 0.2 ml of the active ingredient containing honey/water solution, placed in a cap, was added to each dish. The dishes were covered and maintained at a water temperature of 22° C. […]
b) The tests were conducted as in example a). The following compounds I and II according to EP 33984 were used as comparative examples.

[2] = system: Green Peach Aphid (Myzus persicae); assay: Green Peach Aphid leaf-dip test on pepper plants; settings: foliar, 120 h, after 5 days, read-out: mortality in comparison with untreated controls
Experimental: (§1) The active compounds were formulated in 50:50 acetone:water and 100 ppm Kinetic® surfactant.
Pepper plants in the 2nd leaf-pair stage (variety ‘California Wonder’) were infested with approximately 40 laboratory-reared aphids by placing infested leaf sections on top of the test plants. The leaf sections were removed after 24 hr. The leaves of the intact plants were dipped into gradient solutions of the test compound and allowed to dry. Test plants were maintained under fluorescent light (24 hour photoperiod) at about 25° C. and 20-40% relative humidity. Aphid mortality on the treated plants, relative to mortality on check plants, was determined after 5 days.

[3] = system: Cotton Aphid (Aphis gossypii); assay: Cotton Aphid cotyledon-dip test on cotton plants; settings: 120 h, after 5 days, read-out: mortality in comparison with untreated controls
Excerpt: as §1
Cotton plants in the cotyledon stage (variety ‘Delta Pine’, one plant per pot) were infested by placing a heavily infested leaf from the main colony on top of each cotyledons. The aphids were allowed to transfer to the host plant overnight, and the leaf used to transfer the aphids were removed. The cotyledons were dipped in the test solution and allowed to dry. After 5 days, mortality counts were made.

CCN(CC)S(=O)(=O)c1cccc(Cl)c1C#N [Comparative Example I, reference compound]
mortality at 1 % strength [1]: 35.6%

CCNS(=O)(=O)c1cccc(Cl)c1C#N [Comparative Example II, reference compound]
mortality at 1 % strength [1]: 35.6%

CCCNS(=O)(=O)c1cccc(C)c1C#N [Compound 1, n-Propyl-(2-cyano-3-methyl-phenyl)sulfonamide]
mortality at 300 ppm [2]: > 85%

CNS(=O)(=O)c1cccc(OC)c1C#N [Compound 2, Methyl-(2-cyano-3-methoxy-phenyl)sulfonamide]
mortality at 300 ppm [3]: > 85% | mortality at 300 ppm [2]: > 85%

CCNS(=O)(=O)c1ccc(Cl)c(C)c1C#N [Compound 3, Ethyl-(4-chloro-2-cyano-3-methyl-phenyl)sulfonamide]
mortality at 300 ppm [3]: > 85% | mortality at 300 ppm [2]: > 85%

CCNS(=O)(=O)c1cccc(OC(F)F)c1C#N [Compound 66]
Mean cumulative % mortality 6 days after treatment ([1]; in vivo): 100.0% | mortality compared to untreated controls ([1]; in vivo): 100%

N#Cc1c(OC(F)F)cccc1S(N)(=O)=O [Compound 78]
mortality compared to untreated controls ([1]; in vivo): 100%

C#CCNS(=O)(=O)c1cccc(OC(F)F)c1C#N [Compound 79]
mortality compared to untreated controls ([1]; in vivo): 100%
